# Test results: patent US7767854B2, “N-substituted phenylacetamide derivative and pharmaceutical composition containing the same” (Dainippon Sumitomo Pharma Co., Ltd., priority 2005, dated 2010)
# Legend:
# [1] = system: Slc: Hartley male guinea-pigs; test: Skin sensitization test (Adjuvant and Patch Test, allergenic potency); type: in vivo, guinea-pig; conditions: 1% solution patches, FCA pre-treatment, observed 24 and 48 hours after initiation
# Procedure: Experiment 3. Skin Sensitization Test (Evaluation of Allergenic Potency)
# The purpose of the present experiment is to investigate if each administered compound of the invention may induce allergic contact dermatitis. In detail, the test was carried out using Freund's complete adjuvant (FCA) according to the Adjuvant and Patch Test [Sato, et al., Contact Dermatitis, 7, 225-237 (1981)], which is described in “Description of Guideline on Nonclinical Studies of Drugs (Iyakuhin Hirinshou-shiken Guideline Kaisetsu), Chapter 8, P.72-76, Skin sensitization test” [edited by the Ministry of Health and Welfare, Pharmaceutical Affairs Bureau, Yakuji-Nippou-sha (1997)]. Slc: Hartley male guinea-pigs were used for the test. As a test compound, each the compound of the invention and DNCB (1-chloro-2,4-dinitrobenzene) as a positive control drug were dissolved in 70% ethanol/water solution and were administered to the animals. The 70% ethanol/water solution was used as vehicle solvent (reference).
# In detail, after FCA emulsion was intradermally administered around the shaved back part of the guinea-pig as a pre-treatment, each patch containing 1% test compound solution or reference (solvent) solution was closedly attached once a day for consecutive 3 days in total (Primary Sensitization). On 7th day after the Primary Sensitization, 10% sodium lauryl sulfate ointment was openly applied at the same part for 24 hours, and then each patch containing 1% test compound solution or reference (solvent) solution was closedly attached again for 48 hours (Second Sensitization). 14 days after the Second Sensitization treatment, each test compound (maximum concentration: 1%) was applied for 24 hours using patch in the same manner (initiation). 24 and 48 hours after the application, the reaction (erythema, edema) on the applied skin part was observed and was scored (0-3) based on the criteria of Magnusson and Kligman [J. Invest. Dermatol., 52, 268-276 (1969)], and then the degree of skin sensitization induced by each of compound was evaluated.
# male Std: Wistar rats = test: Pain test by plantar thermal stimuli (plantar test); type: in vivo; conditions: Rattus norvegicus, 4 h, 50 μl of 0.03% (W/V) solution i.pl. into right hind-paw; 4 hours after administration; cut-off 25 seconds; read-out: % MPE (percent maximum possible effect, withdrawal latency)
# Procedure: Experiment 1: Pain Test by Plantar Thermal Stimuli (Plantar Test)
# In the present experiment, the analgesic effect of the compounds of the invention was evaluated by the measurements of withdrawal latency to noxious thermal stimuli, according to the methods of Hargreaves, et al., [Pain, 32, 77-88 (1988)] and Field, et al., [J. Pharmacol. Exp. Ther., 282, 1242-1246 (1997)].
# In detail, the experiment was carried out using male Std: Wistar rats (4 rats/group; body weight, 170-220 g) and a plantar test device (Model 7370, Ugo Basile) with infrared beam as a heat source. The rat was put into an experimental cage that is an acrylic box whose bottom is made of glass and was habituated therein. Then, the infrared beam was radiated to the plantar surface of right hind-paw thereof through the floor glass, and the withdrawal latency was measured every 5 minutes, 3 times. The intension of the infrared beam was adjusted so that the pre-drug administration latency was about 10 seconds. The cut-off time was set at 25 seconds in order to prevent a paw burn. The average of the latencies was calculated, and then it was defined as the value of the pre-drug administration latency of the test compound.
# Next day, 50 μl of each solution of the test compounds [the compounds of the invention, the compounds of the comparative Examples and capsaicin (Sigma, U.S.A.)] or 50 μl of vehicle solvent (reference) was given to a right hind-paw of the rat by intraplantar injection (i. pl.) using a micro-syringe. The test compound was dissolved in a saline solution containing 10% Tween 80 (Sigma, U.S.A) and 10% ethanol to give a 0.03% (W/V) solution. The saline solution containing 10% Tween 80 and 10% ethanol was used as reference. Four hours after i.pl. administration of each the test compound or the reference to the rats, the experiment mentioned above was carried out, and then the post-drug administration latency was measured. The analgesic effects thereof were calculated with the following formula, which was known as a percent maximum possible effect (% MPE). % MPE=[(the value of post-drug latency−the value of pre-drug latency)/(25*−the value of pre-drug latency)]×100 *: cut-off time
# female CBA/JN mice = test: Skin sensitization test (Local Lymph Node Assay with BrdU); type: in vivo, mouse; conditions: 1 and 3% solutions in DMF on both auricles, 3 days
# Procedure: Experiment 4: Skin Sensitization Test (Local Lymph Node Assay)
# The purpose of the present experiment is to investigate if each administered compound of the invention can induce allergic contact dermatitis. In detail, the skin sensitization effect of the compounds of the invention was examined using BrdU (bromodeoxyuridine) by LLNA (Local Lymph Node Assay).
# In more detail, the test was carried out according to the method by Suda, A. et al. (Local lymph node assay with non-radioisotope alternative endpoints. J. Toxicol. Sci., 27(3):205-218, 2002). Namely, the compounds of the invention were dissolved in DMF (N,N-dimethylformamide) to prepare 1 and 3% solutions, which were applied to both auricles of female CBA/JN mice aged 9 weeks for consecutive 3 days (1st day to 3rd day)(25 μl/one-side ear, once a day)
# As positive control drugs, DNCB (dinitrochlorobenzene, a potently sensitizing drug) and HCA (α-hexylcinnamaldehyde, a weakly sensitizing drug) were used. After the final application was finished (on 3rd day), ALZET Osmotic Pump containing 100 μl of 200 mg/mL BrdU (releasing rate: 0.5 μl/hour) was implanted into the ventral skin under pentobarbital anesthesia, and BrdU was exposed sustainedly. On 9th day from starting day to apply the compounds of the invention, the animals were euthanized by cervical dislocation, and parotid lymph nodes of both their ears were taken out. The nodes were weighed and homogenized in PBS to prepare a single cell suspension which was measured by a blood test device: ADVIA (Bayer) to count the number of the cells. Next, the cells were immunofluorescently stained with FITC-labeled anti-BrdU antibody using a BrdU Flow Kit (BD Biosciences), which were measured and analyzed using a flow cytometer: FACS Calibur (Becton Dickinson) to give BrdU-positive cell percentage. And then, the BrdU-positive cell percentage was multiplied by the number of the node cells to give the number of the BrdU-positive cells. Additionally, on each parameter, the average value for the test compound group was divided by the average value for the reference (solvent) group to give a stimulation Index (SI). We judged that the compound had skin sensitization activity when the SI of BrdU-positive cell number was 2 or more, in principle.
structure (smiles),measurement,setting,value
"CCCCC1=CCC(NC(=O)Cc2ccc(O)c(OC)c2)CC1 (single isomer, unassigned; (+)) [Example 43, (+)-N-(4-butyl-3-cyclohexenyl)-2-(4-hydroxy-3-methoxyphenyl)acetamide]","skin sensitization (erythema, edema score)",[1],no skin sensitization
"CCCC=C1CCC(NC(=O)Cc2ccc(O)c(OC)c2)CC1 (single isomer, unassigned; (+)) [Example 45, (+)-N-(4-butylidenecyclohexyl)-2-(4-hydroxy-3-methoxyphenyl)acetamide]",change in vivo at 300 µg/mL,male Std: Wistar rats,73.9%
same,"skin sensitization (erythema, edema score)",[1],no skin sensitization
"CCCCC1=CCC(NC(=O)Cc2ccc(O)c(OC)c2)CC1 (single isomer, unassigned; (-)) [Example 44, (−)-N-(4-butyl-3-cyclohexenyl)-2-(4-hydroxy-3-methoxyphenyl)acetamide]","skin sensitization (erythema, edema score)",[1],no skin sensitization
"CCCC=C1CCC(NC(=O)Cc2ccc(O)c(OC)c2)CC1 (single isomer, unassigned; (-)) [Example 46, (−)-N-(4-butylidenecyclohexyl)-2-(4-hydroxy-3-methoxyphenyl)acetamide]","skin sensitization (erythema, edema score)",[1],no skin sensitization
"CCCCC1=CCC(NC(=O)Cc2ccc(O)c(OC)c2)CC1 (centres unmarked) [Example 1, N-(4-butyl-3-cyclohexenyl)-2-(4-hydroxy-3-methoxyphenyl)acetamide]",change in vivo at 300 µg/mL,male Std: Wistar rats,69.9%
same,"skin sensitization (erythema, edema score)",[1],no skin sensitization
same,skin sensitization (SI of BrdU-positive cell number),female CBA/JN mice,weak skin sensitization
"CCCCC1CCC(NC(=O)Cc2ccc(O)c(OC)c2)CC1 (centres unmarked) [Example 2, N-(4-butylcyclohexyl)-2-(4-hydroxy-3-methoxyphenyl)acetamide]",change in vivo at 300 µg/mL,male Std: Wistar rats,81.4%
same,"skin sensitization (erythema, edema score)",[1],no skin sensitization
same,skin sensitization (SI of BrdU-positive cell number),female CBA/JN mice,weak skin sensitization
CCCCC[C@H]1CC[C@@H](NC(=O)Cc2ccc(O)c(OC)c2)CC1 [Example 8],change in vivo at 300 µg/mL,male Std: Wistar rats,88.4%
same,skin sensitization (SI of BrdU-positive cell number),female CBA/JN mice,weak skin sensitization
"CCCC=C1CCC(NC(=O)Cc2ccc(O)c(OC)c2)CC1 (centres unmarked) [Example 10, N-(4-butylidenecyclohexyl)-2-(4-hydroxy-3-methoxyphenyl)acetamide]",change in vivo at 300 µg/mL,male Std: Wistar rats,89.4%
same,skin sensitization (SI of BrdU-positive cell number),female CBA/JN mice,weak skin sensitization
CC/C=C\[C@H]1CC[C@H](NC(=O)Cc2ccc(O)c(OC)c2)CC1 [Example 16],change in vivo at 300 µg/mL,male Std: Wistar rats,94.1%
same,"skin sensitization (erythema, edema score)",[1],no skin sensitization
same,skin sensitization (SI of BrdU-positive cell number),female CBA/JN mice,weak skin sensitization
C/C=C\[C@H]1CC[C@H](NC(=O)Cc2ccc(O)c(OC)c2)CC1 [Example 22],change in vivo at 300 µg/mL,male Std: Wistar rats,54.7%
same,"skin sensitization (erythema, edema score)",[1],no skin sensitization
same,skin sensitization (SI of BrdU-positive cell number),female CBA/JN mice,weak skin sensitization
"COc1cc(CC(=O)N[C@H]2CC[C@H](CCC(C)C)CC2)ccc1O [Example 26, 2-(4-hydroxy-3-methoxyphenyl)-N-[trans-4-(3-methylbutyl)cyclohexyl]acetamide]",change in vivo at 300 µg/mL,male Std: Wistar rats,96.3%
same,skin sensitization (SI of BrdU-positive cell number),female CBA/JN mice,weak skin sensitization
COc1cc(CC(=O)N[C@H]2CC[C@H](CCCC(C)C)CC2)ccc1O [Example 27],change in vivo at 300 µg/mL,male Std: Wistar rats,89.5%
same,"skin sensitization (erythema, edema score)",[1],no skin sensitization
same,skin sensitization (SI of BrdU-positive cell number),female CBA/JN mice,weak skin sensitization
CCCCCO[C@H]1CC[C@H](NC(=O)Cc2ccc(O)c(OC)c2)CC1 [Example 36],change in vivo at 300 µg/mL,male Std: Wistar rats,50.5%
same,skin sensitization (SI of BrdU-positive cell number),female CBA/JN mice,weak skin sensitization
"COc1cc(CC(=O)N[C@H]2CC[C@H](CC=C(C)C)CC2)ccc1O [Example 42, 2-(4-hydroxy-3-methoxyphenyl)-N-[trans-4-(3-methyl-2-butenyl)cyclohexyl]acetamide]",change in vivo at 300 µg/mL,male Std: Wistar rats,85%
same,skin sensitization (SI of BrdU-positive cell number),female CBA/JN mice,weak skin sensitization
"COc1cc(CC(=O)N[C@H]2CC[C@@H](C=C(C)C)CC2)ccc1O [Example 95, 2-(4-hydroxy-3-methoxyphenyl)-N-[cis-4-(2-methyl-1-propenyl)cyclohexyl]acetamide]",change in vivo at 300 µg/mL,male Std: Wistar rats,88.8%
"COc1cc(CC(=O)N[C@H]2CC[C@@H](CC(C)C)CC2)ccc1O [Example 96, 2-(4-hydroxy-3-methoxyphenyl)-N-[cis-4-(2-methylpropyl)cyclohexyl]acetamide]",change in vivo at 300 µg/mL,male Std: Wistar rats,80.4%
"C/C=C(\CC)[C@H]1CC[C@@H](NC(=O)Cc2ccc(O)c(OC)c2)CC1 [Example 97, N-{cis-4-[(E)-1-ethyl-1-propenyl]-cyclohexyl}-2-(4-hydroxy-3-methoxyphenyl)acetamide]",change in vivo at 300 µg/mL,male Std: Wistar rats,63.8%
"CCC(CC)[C@H]1CC[C@@H](NC(=O)Cc2ccc(O)c(OC)c2)CC1 [Example 98, 2-(4-hydroxy-3-methoxyphenyl)-N-[cis-4-(3-pentyl)cyclohexyl]acetamide]",change in vivo at 300 µg/mL,male Std: Wistar rats,74.6%
"COc1cc(CC(=O)N[C@H]2CC[C@H](CCCCF)CC2)ccc1O [Example 99, N-[trans-4-(4-fluorobutyl)cyclohexyl]-2-(4-hydroxy-3-methoxyphenyl)acetamide]",change in vivo at 300 µg/mL,male Std: Wistar rats,55.8%
"COc1cc(CC(=O)N[C@H]2CC[C@H](CC3CC3)CC2)ccc1O [Example 100, N-(trans-4-cyclopropylmethylcyclohexyl)-2-(4-hydroxy-3-methoxyphenyl)acetamide]",change in vivo at 300 µg/mL,male Std: Wistar rats,44.5%
COc1cc(CC(=O)N[C@H]2CC[C@H](/C=C/CC(F)(F)F)CC2)ccc1O [Example 102],change in vivo at 300 µg/mL,male Std: Wistar rats,56.6%
COc1cc(CC(=O)N[C@H]2CC[C@H](/C=C/CCF)CC2)ccc1O [Example 103],change in vivo at 300 µg/mL,male Std: Wistar rats,36.7%
"COc1cc(CC(=O)NC2CCC3(CCCCC3)CC2)ccc1O [Example 105, 2-(4-hydroxy-3-methoxyphenyl)-N-(spiro[5.5]undec-3-yl)acetamide]",change in vivo at 300 µg/mL,male Std: Wistar rats,63.4%
CCC1(CC)CCC(NC(=O)Cc2ccc(O)c(OC)c2)CC1 [Example 106],change in vivo at 300 µg/mL,male Std: Wistar rats,51.5%
CCCCC1(CC)CCC(NC(=O)Cc2ccc(O)c(OC)c2)CC1 (centres unmarked) [Example 107],change in vivo at 300 µg/mL,male Std: Wistar rats,85.2%
